Data reported in ChEMBL document CHEMBL1201862, “PubChem BioAssay data set” (2004).
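Assay format: 96-well plates, 48-hour exposure. GI50 = concentration required for 50% inhibition of growth.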 Activity calls are given as the source filed them. No stated cut-off is given here; in the data, active = GI50 up to about 1.1 µM and inactive = higher.

Assays:
Experiment in all cases: NCI tumour cell line growth inhibition, 48 h
NCI-H226 = system: NCI-H226
IGROV-1 = system: IGROV-1
MOLT-4 = system: MOLT-4
MDA-MB-435 = system: MDA-MB-435
ACHN = system: ACHN
Hs-578T = system: Hs-578T
BT-549 = system: BT-549
TK-10 = system: TK-10
M14 = system: M14
SW-620 = system: SW-620
OVCAR-8 = system: OVCAR-8
EKVX = system: EKVX
CAKI-1 = system: CAKI-1
UO-31 = system: UO-31
UACC-257 = system: UACC-257
UACC-62 = system: UACC-62
MDA-N = system: MDA-N
SR = system: SR
RPMI-8226 = system: RPMI-8226
HL-60 = system: HL-60

Measured: GI50

Cc1ccc(S(=O)(=O)N/N=C2\C(=O)Nc3cc(O)c(C(=O)O)cc32)cc1
inactive: NCI-H226 > 100 µM | IGROV-1 > 100 µM | MOLT-4 > 100 µM | MDA-MB-435 > 100 µM | ACHN > 100 µM | Hs-578T > 100 µM | BT-549 > 100 µM | TK-10 > 100 µM | M14 > 100 µM | SW-620 > 100 µM | OVCAR-8 > 100 µM | EKVX 61.8 µM | CAKI-1 > 100 µM | UO-31 > 100 µM | UACC-257 > 100 µM | UACC-62 > 100 µM | MDA-N > 100 µM | SR > 100 µM | RPMI-8226 > 100 µM

CN(C)Cc1cc(C(=O)O)cc(CN(C)C)c1O
inactive: NCI-H226 > 100 µM | IGROV-1 > 100 µM | MDA-MB-435 > 100 µM | ACHN > 100 µM | Hs-578T > 100 µM | BT-549 > 100 µM | TK-10 > 100 µM | HL-60 > 100 µM | M14 > 100 µM | SW-620 > 100 µM | OVCAR-8 > 100 µM | EKVX > 100 µM | CAKI-1 > 100 µM | UO-31 > 100 µM | UACC-257 > 100 µM | UACC-62 > 100 µM | MDA-N > 100 µM | SR > 100 µM | RPMI-8226 > 100 µM

C=C(C)c1cc(C(C)(C)C)cc(C(=C)C)c1S(C)(=O)=O
inactive: NCI-H226 > 100 µM | IGROV-1 > 100 µM | MOLT-4 > 100 µM | MDA-MB-435 > 100 µM | ACHN > 100 µM | Hs-578T > 100 µM | BT-549 > 100 µM | TK-10 > 100 µM | HL-60 > 100 µM | M14 > 100 µM | SW-620 > 100 µM | OVCAR-8 > 100 µM | EKVX > 100 µM | CAKI-1 > 100 µM | UO-31 > 100 µM | UACC-62 > 100 µM | MDA-N > 100 µM | SR > 100 µM | RPMI-8226 > 100 µM

Nc1ccn(C2CC(O)C(COP(=O)(S)OC3CC(n4ccc(N)nc4=O)OC3CO)O2)c(=O)n1 (stereo unspecified)
inactive: IGROV-1 > 100 µM | MOLT-4 > 100 µM | MDA-MB-435 > 100 µM | ACHN > 100 µM | Hs-578T > 100 µM | BT-549 > 100 µM | TK-10 > 100 µM | HL-60 > 100 µM | M14 > 100 µM | SW-620 > 100 µM | OVCAR-8 > 100 µM | EKVX > 100 µM | CAKI-1 > 100 µM | UO-31 > 100 µM | UACC-257 > 100 µM | UACC-62 > 100 µM | MDA-N 4.93 µM | SR > 100 µM | RPMI-8226 > 100 µM

CCOc1cc(C2CC(c3ccc(NS(=O)(=O)c4cc([N+](=O)[O-])ccc4C)cc3)=NN2)ccc1O (stereo unspecified)
inactive: NCI-H226 43 µM | IGROV-1 58.9 µM | MOLT-4 17.5 µM | MDA-MB-435 28.1 µM | ACHN 23.7 µM | Hs-578T 65 µM | BT-549 21.1 µM | HL-60 15.5 µM | M14 19 µM | SW-620 32.8 µM | OVCAR-8 44.5 µM | EKVX 21.4 µM | CAKI-1 29.3 µM | UO-31 27.8 µM | UACC-62 14 µM | MDA-N 33.2 µM | SR 22.4 µM | RPMI-8226 24.6 µM

O=C(O)CSc1nc2ccccc2[nH]1
inactive: IGROV-1 > 100 µM | MOLT-4 6.25 µM | MDA-MB-435 > 100 µM | ACHN > 100 µM | Hs-578T > 100 µM | BT-549 > 100 µM | TK-10 > 100 µM | M14 > 100 µM | SW-620 > 100 µM | OVCAR-8 > 100 µM | EKVX > 100 µM | CAKI-1 > 100 µM | UO-31 > 100 µM | UACC-257 > 100 µM | UACC-62 > 100 µM | MDA-N > 100 µM | SR > 100 µM
